The target of test [1] is T1, FMS kinase (Homo sapiens, UniProt P07333).
T1 construct: purchased Millipore
T1 sequence (P07333 538-972): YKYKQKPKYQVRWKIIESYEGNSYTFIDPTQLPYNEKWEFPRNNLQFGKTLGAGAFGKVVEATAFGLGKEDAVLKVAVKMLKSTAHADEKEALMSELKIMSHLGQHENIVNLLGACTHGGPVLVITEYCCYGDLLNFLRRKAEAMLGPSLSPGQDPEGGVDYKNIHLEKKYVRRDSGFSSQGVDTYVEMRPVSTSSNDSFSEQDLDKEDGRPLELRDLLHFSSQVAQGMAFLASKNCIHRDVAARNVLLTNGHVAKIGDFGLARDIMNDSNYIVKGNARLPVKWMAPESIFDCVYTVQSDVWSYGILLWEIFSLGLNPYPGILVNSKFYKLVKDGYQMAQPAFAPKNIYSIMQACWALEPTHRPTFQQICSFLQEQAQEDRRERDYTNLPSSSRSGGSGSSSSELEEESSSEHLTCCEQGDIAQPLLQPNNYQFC
The test can be described thus: FMS kinase assay (pyruvate kinase/lactate dehydrogenase coupled, A340). It counts as biochemical. To be noted: enzymatic assay, ATP 500 μM. How it is done: Activity of FMS kinase was determined by following the production of ADP from the FMS kinase reaction with ATP and poly E4Y as substrates through coupling with the pyruvate kinase/lactate dehydrogenase system (e.g., Schindler et al. Science (2000) 289: 1938-1942). In this assay, the oxidation of NADH (thus the decrease at A340 nm) was continuously monitored spectrophometrically. The reaction mixture (100 μl) contained FMS (purchased from Millipore) (10 nM), polyE4Y (1 mg/mL), MgCl2 (10 mM), pyruvate kinase (4 units), lactate dehydrogenase (0.7 units), phosphoenol pyruvate (1 mM), and NADH (0.28 mM) and ATP (500 μM) in 90 mM Tris buffer containing 0.2% octyl-glucoside and 1% DMSO, pH 7.5. Immediately, the inhibition reaction was started by mixing serial diluted test compound with the above reaction mixture. The absorption at 340 nm was monitored continuously for 4 hours at 30° C. on Synergy 2 plate reader. The reaction rate was calculated using the 3 to 4 h time frame. Percent inhibition was obtained by comparison of reaction rate with that of a control (i.e. in the absence of test compound). IC50 values were calculated from a series of percent inhibition values determined at a range of inhibitor concentrations using software routines as implemented in the GraphPad Prism software package.

In test [2] the target is T2, c-KIT kinase (Seq. ID No. 1) (Homo sapiens, UniProt P10721).
T2 construct: c-KIT (cKIT residues T544-V976, from ProQinase, 5.4 nM); purchased ProQinase
Nature of the test: c-KIT kinase assay (pyruvate kinase/lactate dehydrogenase coupled, A340). It counts as biochemical. To be noted: enzymatic assay, ATP 200 μM; read-out: cKIT. As to the method: Activity of c-KIT kinase (Seq. ID No. 1) was determined by following the production of ADP from the kinase reaction through coupling with the pyruvate kinase/lactate dehydrogenase system (e.g., Schindler et al. Science 2000, 289, pp. 1938-1942). In this assay, the oxidation of NADH (thus the decrease at A340 nm) was continuously monitored spectrophotometrically. The reaction mixture (100 μl) contained c-KIT (cKIT residues T544-V976, from ProQinase, 5.4 nM), polyE4Y (1 mg/mL), MgCl2 (10 mM), pyruvate kinase (4 units), lactate dehydrogenase (0.7 units), phosphoenol pyruvate (1 mM), and NADH (0.28 mM) in 90 mM Tris buffer containing 0.2% octyl-glucoside and 1% DMSO, pH 7.5. Test compounds were incubated with c-KIT (Seq. ID No. 1) and other reaction reagents at 22° C. for less than 2 min before ATP (200 μM) was added to start the reaction. The absorption at 340 nm was monitored continuously for 0.5 hours at 30° C. on Polarstar Optima plate reader (BMG). The reaction rate was calculated using the 0 to 0.5 h time frame. Percent inhibition was obtained by comparison of reaction rate with that of a control (i.e., with no test compound). IC50 values were calculated from a series of percent inhibition values determined at a range of inhibitor concentrations using software routines as implemented in the GraphPad Prism software package.

Test [3] relates to MKN-45 cells. Nature of the test: MKN-45 cell proliferation assay (resazurin). It counts as cell-based. Particulars: Homo sapiens, 67 h + 5 h resazurin. How it is done: MKN-45 cells (catalog #JCRB0254) were obtained from the Japan Health Science Research Resources Bank, Osaka, Japan. Briefly, cells were grown in RPMI 1640 media supplemented with 10% characterized fetal bovine serum (Invitrogen, Carlsbad, Calif.) at 37° C., 5% CO2, 95% humidity. Cells were allowed to expand until reaching 70-95% confluency at which point they were subcultured or harvested for assay use.
A serial dilution of test compound was dispensed into a 96-well black clear bottom plate (Corning, Corning, N.Y.). Five thousand cells were added per well in 200 μL complete growth medium. Plates were incubated for 67 hours at 37° C., 5% CO2, 95% humidity. At the end of the incubation period 40 μL of a 440 μM solution of resazurin (Sigma, St. Louis, Mo.) in PBS was added to each well and plates were incubated for an additional 5 h at 37° C., 5% CO2, 95% humidity. Plates were read on a Synergy2 reader (Biotek, Winooski, Vt.) using an excitation of 540 nm and an emission of 600 nm. Data was analyzed using Prism software (GraphPad, San Diego, Calif.) to calculate IC50 values.
(In general: Resazurin is reduced to fluorescent resorufin, in cell work by metabolically active cells.)

The record followed here is US9012635B2, “Pyridone amides and analogs exhibiting anti-cancer and anti-proliferative activities” (Deciphera Pharmaceuticals, LLC, priority 2013, dated 2015).

pIC50: −log10 of the molar value. Where a name gives a salt, the structure may show the parent alone.

T2 sequence (P10721 with tags, fused parts or gaps): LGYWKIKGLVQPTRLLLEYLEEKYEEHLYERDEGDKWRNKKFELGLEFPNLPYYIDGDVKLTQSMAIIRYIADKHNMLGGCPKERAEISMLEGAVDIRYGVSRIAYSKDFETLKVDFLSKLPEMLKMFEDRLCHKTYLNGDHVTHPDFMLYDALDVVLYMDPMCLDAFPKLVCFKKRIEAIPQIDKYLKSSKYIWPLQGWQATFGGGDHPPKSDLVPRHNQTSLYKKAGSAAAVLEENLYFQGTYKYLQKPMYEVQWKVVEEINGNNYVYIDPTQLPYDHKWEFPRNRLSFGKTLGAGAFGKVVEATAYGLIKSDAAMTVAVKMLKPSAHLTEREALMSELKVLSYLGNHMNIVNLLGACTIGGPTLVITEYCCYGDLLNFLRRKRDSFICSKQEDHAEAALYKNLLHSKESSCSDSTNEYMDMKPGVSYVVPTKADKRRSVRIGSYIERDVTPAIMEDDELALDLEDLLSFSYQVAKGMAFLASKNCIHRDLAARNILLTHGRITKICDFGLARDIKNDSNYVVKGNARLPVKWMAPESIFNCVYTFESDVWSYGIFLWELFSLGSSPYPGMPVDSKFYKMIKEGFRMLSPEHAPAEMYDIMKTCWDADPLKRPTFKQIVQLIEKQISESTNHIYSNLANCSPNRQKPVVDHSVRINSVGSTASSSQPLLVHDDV

With `O=C(Nc1cc(F)c(Oc2ccnc(-c3cnn(CCO)c3)c2)cc1F)c1cccn(-c2ccc(F)cc2)c1=O` [Example 3, N-(2,5-difluoro-4-((2-(1-(2-hydroxyethyl)-1H-pyrazol-4-yl)pyridin-4-yl)oxy)phenyl)-1-(4-fluorophenyl)-2-oxo-1,2-dihydropyridine-3-carboxamide hydrochloride], the pIC50 was no less than 7.00 in test [1] and less than 6.00 in test [2].

`CCOc1ccn(-c2ccc(F)cc2)c(=O)c1C(=O)Nc1cc(F)c(Oc2ccnc(-c3cnn(C)c3)c2)cc1F` [Example 2, N-(2,5-difluoro-4-(2-(1-methyl-1H-pyrazol-4-yl)pyridin-4-yloxy)phenyl)-4-ethoxy-1-(4-fluorophenyl)-2-oxo-1,2-dihydropyridine-3-carboxamide]: the pIC50 in test [3] was no less than 7.00; in test [1], 6.00 to 7.00; in test [2], less than 6.00.

As to `CCNc1ccn(-c2ccc(F)cc2)c(=O)c1C(=O)Nc1cc(F)c(Oc2ccnc(-c3cnn(C)c3)c2)cc1F` [Example 5, N-(2,5-difluoro-4-((2-(1-methyl-1H-pyrazol-4-yl)pyridin-4-yl)oxy)phenyl)-4-(ethylamino)-1-(4-fluorophenyl)-2-oxo-1,2-dihydropyridine-3-carboxamide], the pIC50 is 6.00 to 7.00 in test [3], 6.00 to 7.00 in test [1] and less than 6.00 in test [2].

As for `Cn1cc(-c2cc(Oc3cc(F)c(NC(=O)c4cccn(-c5ccc(F)cc5)c4=O)cc3F)ccn2)cn1` [Example 1, N-(2,5-difluoro-4-((2-(1-methyl-1H-pyrazol-4-yl)pyridin-4-yl)oxy)phenyl)-1-(4-fluorophenyl)-2-oxo-1,2-dihydropyridine-3-carboxamide], the pIC50 in test [3], in test [1] and in test [2] was no less than 7.00 in each case.
